Data as given in patent US20220151954A1, “TREATMENT OF SEBACEOUS GLAND DISORDERS” (priority 2019, published 2022).

Key:
human sebocytes = conditions: cited from earlier work
[1] = test system: TNFα secretion by U937 cells; experiment: Inhibition of secretion of TNFα by lipopolysaccharide-stimulated U937 cells (ELISA); format: cell-based
Protocol: (§1) U937 cells, were thawed and treated according to the manufacturer's instructions. The cultures were incubated for recovery at 37° C. with 5% CO2 until 70-80% confluency was reached (visual estimation). Then, approx. 0.3×10^6 ¢/mL (determined by counting) were seeded in 96 well plates containing 200 μL/well of complete growth medium. The cells were incubated at 37° C. with 5% CO2 until 60% confluency was reached (visual estimation, typically—after 48 hr).
(§2) After the cells had reached the required confluency, the medium was replaced with pre-prepared growth medium supplemented with 1 μg/mL of lipopolysaccharides, and the test components were added, at a final volume of 200 μL/well. The following control groups were also added: Naïve cells, vehicle control, stimulation control, stimulation vehicle control. A proper blank control was subtracted from the measurements.
(§3) The cells were incubated for 24 hr. at 37° C. with 5% CO2. After the incubation, the conditioned medium of the different treatment groups was collected under standardized conditions and centrifuged at 250×g for 5 min to remove particulates. Clear supernatants were frozen at −70° C. until cytokines analyses. The secretion levels of IL-1β and TNFα (a major inflammatory marker) were quantified by commercial ELISA.

[2] = test system: IL-1β secretion by U937 cells; experiment: Inhibition of secretion of IL-1β by lipopolysaccharide-stimulated U937 cells (ELISA); format: cell-based
Protocol: as §1, §2, §3

P. acnes = experiment: Propionibacterium acnes growth inhibition (absorbance at 600 nm); format: cell-based
Protocol: A streak plate isolation technique was performed to isolate a single homogenous colony of P. acnes. A pinch of one colony was inoculated from agar plate into U-shape falcon tube containing 4 ml of broth media. Cultures were incubated at 37° C. in reduced oxygen-conditions for 72 hours. The cultures were then diluted and grown to mid-log phase (O.D. 0.5; 600 nm) for 3 hr.
The bacteria were incubated with the test components (cannabidiol and/or extract of C. asiatica) at different concentrations in triplicate at a final volume of 200 μl in an N-pre-flushed U shape 96-well plates for 3 hr. An additional blank control group was included (media w/o bacteria). Also, a negative (bacteria without test samples) control groups was included in the assay. In addition, combinations of the these components were tested (see Table 2).
The absorbance was recorded at 600 nm. The absorbance of the blank control was subtracted from all measurements. The change in bacterial number in response to increasing test sample concentrations was plotted.

[3] = test system: PGE2 secretion by RAW 264.7 cells; experiment: Secretion of PGE2 by LPS-stimulated RAW 264.7 cells; format: cell-based
Protocol: RAW 264.7 cells (approx. 2.5×10^5 ¢/ml, by counting) were seeded in 96 well plates containing 170 μl/well of complete growth medium. The cells were incubated at 37° C. with 5% CO2 for 24 hr. […] In addition, naïve cells, vehicle-treated cells, Stimulated Control, and Stimulated Vehicle Control served as negative controls. Dexamethasone served as a positive control for anti-inflammatory assay. A Blank control group was included in the assay.
The spent media from all test groups were collected under standardized conditions and centrifuged at 250 g for 5 min to remove particulates. Clear supernatants were frozen at −70° C. until analysis. The secretion levels of PGE2 (an important inflammatory marker) were determined.

[4] = cultured human sebocytes and human skin organ culture
[5] = Homo sapiens, U-937, each component present at 10 μg/ml, 1 μg/mL lipopolysaccharides, 24 hr

C=C(C)[C@@H]1CCC(C)=C[C@H]1c1c(O)cc(CCCCC)cc1O [Cannabidiol, cannabidiol]
effect on lipogenic actions of arachidonic acid, linoleic acid + testosterone (in words) (human sebocytes; [4]): inhibited the lipogenic actions
effect on sebocyte proliferation (in words) (human sebocytes; [4]): suppressed sebocyte proliferation
anti-inflammatory action (in words) (human sebocytes; human sebocytes): exerted complex anti-inflammatory actions
inhibition at 10 µg/mL [1, 5]: 48%
effect on secretion of TNFα (in words) ([1]; summary of Table 3): attenuates
inhibition at 10 µg/mL [2, 5]: 28.4%
effect on secretion of IL-1β (in words) ([2]; summary of Table 3): attenuates
inhibition at 1.25 µg/mL (P. acnes; Cutibacterium acnes, Sample 1: cannabidiol 1.25 μg/ml, C. asiatica 0, 3 hr): -10.9%
inhibition at 2.5 µg/mL (P. acnes; Cutibacterium acnes, Sample 2: cannabidiol 2.5 μg/ml, C. asiatica 0, 3 hr): 5.7%
effect on growth of P. acnes (in words) (P. acnes; summary of Table 2): neither cannabidiol nor extract of C. asiatica significantly inhibits growth
inhibition at 1.25 µg/mL ([3]; Mus musculus, RAW264.7, Sample 1: cannabidiol 1.25 μg/ml alone, RAW 264.7, LPS 12.5 ng/ml): 1.9%
inhibition at 2.5 µg/mL ([3]; Mus musculus, RAW264.7, Sample 2: cannabidiol 2.5 μg/ml alone, RAW 264.7, LPS 12.5 ng/ml): 24%
effect on secretion of PGE2 (in words) ([3]; at a concentration of 2.5 μg/ml): attenuates
